# Legend:
# Test in all cases: In vitro MMP inhibition analysis (fluorogenic peptide substrate cleavage), Ki
# Assay type in all cases: biochemical
# Details in all cases: Table 2
# Human recombinant MMP-9 = molecular target: T1, Human recombinant MMP-9 (Homo sapiens, UniProt P14780)
# T1 construct: made in house; host or cells: MMP-9-transfected HT1080 cells (spent media)
# Outline: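 Recombinant MMP-9 purified from transfected HT1080 cell media, activated with APMA, trypsin or recombinant MMP-3, assayed in Tris buffer pH 7.5 with CaCl2 and 4 μM fluorogenic MCA/Dpa peptide, 1 h at room temperature (ex 330/em 420 nm). Ki from Morrison-equation regression of velocity; substrate at or below Km, uncorrected.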
# Human recombinant MMP-14 = molecular target: T2, Human recombinant MMP-14 (Homo sapiens, UniProt P50281)
# T2 construct: The catalytic domain enzyme was expressed in E. coli inclusion bodies, solubilized in urea; made in house
# Outline: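 Refolded catalytic domain of MMP-14 expressed in E. coli, activated with APMA or trypsin, incubated 1 h at room temperature with 4 μM MCA-peptide substrate in Tris buffer pH 7.5 with CaCl2. Cleavage rate followed by fluorescence (ex 330/em 420 nm). Ki from Morrison-equation fit; substrate at or below Km, so no substrate correction.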
# Human recombinant MMP-1 = molecular target: T3, Human recombinant MMP-1 (Homo sapiens, UniProt P03956)
# T3 construct: made in house; host or cells: MMP-1-transfected HT-1080 cells (spent media)
# T3 sequence (P03956 100-469): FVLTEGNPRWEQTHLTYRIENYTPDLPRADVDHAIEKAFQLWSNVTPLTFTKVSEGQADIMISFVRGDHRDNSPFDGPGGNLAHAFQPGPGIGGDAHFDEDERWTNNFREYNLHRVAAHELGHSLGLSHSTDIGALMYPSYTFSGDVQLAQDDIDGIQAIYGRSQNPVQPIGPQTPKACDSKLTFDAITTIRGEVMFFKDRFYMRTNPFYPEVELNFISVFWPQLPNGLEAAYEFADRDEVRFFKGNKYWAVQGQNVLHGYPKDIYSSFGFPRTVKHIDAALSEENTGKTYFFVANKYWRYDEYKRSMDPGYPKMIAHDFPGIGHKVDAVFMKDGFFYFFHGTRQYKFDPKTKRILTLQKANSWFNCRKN
# Outline: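 APMA- or trypsin-activated recombinant human MMP-1 (purified from transfected HT-1080 medium) with 4 μM MCA/Dpa quenched fluorogenic peptide, 1 h at room temperature in Tris/NaCl/CaCl2 buffer pH 7.5; fluorescence ex 330/em 420 nm. Ki from Morrison-equation fit of rates, substrate at or below Km, uncorrected.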
# T1 sequence (P14780 107-707 limits assumed): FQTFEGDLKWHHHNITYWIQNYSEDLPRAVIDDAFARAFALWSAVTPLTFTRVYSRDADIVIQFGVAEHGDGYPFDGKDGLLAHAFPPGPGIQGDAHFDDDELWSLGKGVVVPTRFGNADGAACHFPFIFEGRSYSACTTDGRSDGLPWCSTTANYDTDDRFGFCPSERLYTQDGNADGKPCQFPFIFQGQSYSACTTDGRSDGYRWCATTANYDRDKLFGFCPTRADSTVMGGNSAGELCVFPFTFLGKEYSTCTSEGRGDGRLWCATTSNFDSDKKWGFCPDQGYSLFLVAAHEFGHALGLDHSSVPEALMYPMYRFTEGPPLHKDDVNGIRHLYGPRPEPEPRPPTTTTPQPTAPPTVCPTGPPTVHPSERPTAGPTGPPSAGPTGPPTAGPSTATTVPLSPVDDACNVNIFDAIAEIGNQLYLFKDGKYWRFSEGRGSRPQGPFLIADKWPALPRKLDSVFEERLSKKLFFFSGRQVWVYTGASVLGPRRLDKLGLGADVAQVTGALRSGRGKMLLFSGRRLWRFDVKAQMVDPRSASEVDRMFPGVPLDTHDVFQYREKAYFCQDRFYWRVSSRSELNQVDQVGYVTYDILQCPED
Ki (Human recombinant MMP-9),Ki (Human recombinant MMP-14),Ki (Human recombinant MMP-1),SMILES
0.147 nM,586 nM,4510 nM,C#CCN1CCC(C(=O)NO)(S(=O)(=O)c2ccc(-c3ccc(CCC(F)(F)C(F)(F)F)cn3)cc2)CC1 [Example 199]
5.4 nM,109 nM,1040 nM,CC(C)c1ccc(-c2ccc(S(=O)(=O)C3(C(=O)NO)CCOCC3)cc2)cc1 [Example 97]
> 10000 nM,> 10000 nM,> 10000 nM,O=C(NO)C1(S(=O)(=O)c2ccc(-c3ccccc3CO)cc2)CCOCC1 [Example 197]
1 nM,5070 nM,> 10000 nM,O=C(NO)C1(S(=O)(=O)c2ccc(-c3cnc(CCC(F)(F)F)cn3)cc2)CCN(C2CC2)CC1 [Example 215]
9.78 nM,773 nM,975 nM,O=C(CCc1nccs1)c1ccc(-c2ccc(S(=O)(=O)C3(C(=O)NO)CCOCC3)cc2)cc1 [Example 211]
